# From paper PMC11965977, “Selective Antiproliferative and Apoptotic Effects of 2,6‐Diketopiperazines on MDA‐MB‐231 Triple‐Negative Breast Cancer” (Chemical Biology & Drug Design, 2025)
# Experiments:
# Type in all cases: cell-based
# [1] = test system: MDA‐MB‐231 triple‐negative breast cancer cells; test: Antiproliferative activity by MTT assay on MDA‐MB‐231 cell line; settings: Homo sapiens, 24 h treatment, 1% DMSO, mean ± standard deviation of three separate determinations, read-out: IC50 of inhibitory activity on MDA‐MB‐231 triple‐negative breast cancer cells
# Description: The antiproliferative activity of 2,6‐diketopiperazines 1, stereoisomers (S)‐2a‐14a, and (R)‐2b‐4b, 6b‐8b, and 11b‐14b was evaluated by the MTT assay on the MDA‐MB‐231 cell line using TSA as positive control at 50 μM. […] Compounds 1 and both (S) and (R) enantiomers reveal differences in their inhibitory effects.
# (§1) Cell lines of the MDA‐MB‐231 of TNBC and VERO from healthy kidney cells used in this work were donated by ‘National Institute of Cancerology of the Ministry of Health’ from Mexico. MDA‐MB‐231 and Vero cells preserved at −70°C in DMEM F12 medium Gibco, 10% FBS, 5% DMSO, and 5% glycerol were thawed at 37°C and resuspended in DMEM F12 medium, supplemented with 10% FBS and antibiotic (penicillin 100 UI/mL, streptomycin 100 μg/mL and amphotericin 250 μg/mL) and then centrifuged at 2000 rpm for 10 min. The supernatant was removed, and the cells were resuspended in DMEM F12 medium, supplemented with 10% FBS and antibiotic, seeded in 25 cm^2 culture flasks Corning, and incubated at 37°C with 5% CO2 until at least 90% confluence was reached.
# (§2) The MTT assay was used to measure metabolically active cells. Cells were seeded into 96‐well microtiter plates Corning at […] in 100 μL of DMEM‐F12 medium supplemented with 10% FBS and antibiotic Gibco (penicillin 100 IU/mL, streptomycin 100 μg/mL and amphotericin 250 μg/mL). After reaching confluence, cells were treated for 24 h with compounds 1, (S)‐2–14 and (R)‐2–4, 6–8, 11–14 stereoisomers, at concentrations of […], 0.00229, 0.0073, 0.0243, 0.081, 0.27, 0.9, 3.0, 10.0, and 12.0 mM at 1% DMSO, with compounds 1, (S)‐2a, ‐4a, and ‐5a at concentrations of 0.00066, 0.00229, 0.0073, 0.0243, 0.081, 0.27, 0.9, 3.0,10.0, and 12 mM at 1% DMSO, using DMSO 1% in DMEM F12 as the negative control and TSA as the positive control at 50 μM (Sanaei and Kavoosi [2020]). Post‐treatment, cell viability was measured by the conventional MTT dye‐reduction assay. Thus, 20 μL of MTT reagent (5 mg/mL) in PBS 1X was added to each well and incubated at 37 °C for 4 h. Viable cells with active mitochondria reduced the MTT to an insoluble purple formazan precipitate that was solubilized with the subsequent addition of 50 μL of DMSO. The formazan dye was measured spectrophotometrically using a microplate reader Molecular Devices. The cytotoxic impact of each treatment was quantified by determining cell viability as a percentage relative to untreated control cells, referred to as the percentage of control. This is calculated using the formula: [(A595 or A570 nm reading of treated cells)/(A595 or A570 nm reading of untreated cells)] × 100 (Mosmann [1983]; Plumb [1999]). All assays were performed in triplicate. Cell proliferation percentages relative to growth control cells were calculated, and inhibitory concentration 50 (IC50) values were calculated using a regression analysis of the concentration/antiproliferative activity ratio and analyzed using the statistical package prism (Graph‐Pad Software, San Diego, CA, USA).
# [2] = test system: Vero kidney cell line; test: Cytotoxicity by MTT assay on healthy Vero kidney cell line; settings: concentrations 0.00066 to 12 mM
# Description: (§3) Compounds 1, (S)‐2a, −4a, and ‐5a presented the lowest IC50 values of all the compounds tested (see Table 1), so it was interesting to investigate their toxicity in healthy cells.
# as §1, §2
# [3] = as above; settings: African green monkey, Vero kidney cells (healthy), even at 12 mM concentrations (data not shown)
# Description: as §3, §1, §2
# [4] = test system: MDA‐MB‐231 cell line; test: Apoptotic induction by Annexin V‐FITC/7AAD flow cytometry on MDA‐MB‐231 cell line; settings: MDA‐MB‐231, compound at its IC50 concentration
# Excerpt: This work presents the apoptotic induction of the 2,6‐DKPs 1, (S)‐stereoisomers 2a to 6a derived from Gly, Ala, Val, Leu, Ile, and Pro α‐amino acids, respectively; as well as 9a to 14a derived from Tyr, Tyr (where the OH group is protected with an acetamide group), Ser, Thr, Met, and Trp α‐amino acids, respectively on the MDA‐MB‐231 cell line by flow cytometry. In this assay, 1% DMSO was used as a negative control and TSA as a positive control (Figure 2). The inhibition of proliferation may be due, among other mechanisms, to arrest in the cell cycle, and/or to an induction of cell death. In the second case, it is important to differentiate whether this death is necrotic inflammatory or apoptotic non‐inflammatory, which is desirable for anti‐cancer agents. […]
# FIGURE 5 Flow Cytometry Analysis Strategy. […] A total of 5000/seg events were analyzed for each group.
# Assays were performed using the commercial kit Annexin V labeled with the fluorochrome fluorescein isothiocyanate (FITC) BD Biosciences. […] After incubation time, the quantification of MDA‐MB‐231 cells was performed by flow cytometry with a FITC and 7AAD signal detector (FL1) and (FL3) on a FACS aria (Becton Dickinson). 5000/seg events were analyzed. Apoptotic induction percentages were calculated (Graph‐Pad Software, San Diego, CA, USA).
IC50 [1],Compound,also measured
5.5 ± 0.235 µM,CC(C)C[C@@H]1NCC(=O)NC1=O [(S)‐4a],"Toxicity on Vero kidney cell line (in words) [2]: did not exhibit toxicity; viability at 24 h, 12 mM [3]: 100%"
4940 ± 733 µM,O=C1CN[C@@H](Cc2ccc(OCc3ccccc3)cc2)C(=O)N1 [(S)‐8a],–
1669 ± 11 µM,O=C1CN[C@@H](Cc2ccc(O)cc2)C(=O)N1 [(S)‐9a],–
6.8 ± 0.028 µM,CCC(C)[C@@H]1NCC(=O)NC1=O (stereo partly drawn) [(S)‐5a],"Toxicity on Vero kidney cell line (in words) [2]: did not exhibit toxicity; viability at 24 h, 12 mM [3]: 100%"
49 ± 26 µM,O=C1CN[C@@H](CO)C(=O)N1 [(S)‐11a],–
357 ± 190 µM,O=C1CN[C@H](Cc2c[nH]c3ccccc23)C(=O)N1 [(R)‐14b],–
801 ± 208 µM,O=C1CN[C@H](CO)C(=O)N1 [(R)‐11b],–
21 µM,C[C@H]1NCC(=O)NC1=O [(R)‐2b],–
265 µM,CC(C)C[C@H]1NCC(=O)NC1=O [(R)‐4b],–
469 ± 860 µM,NC(=O)COc1ccc(C[C@@H]2NCC(=O)NC2=O)cc1 [(S)‐10a],–
3640 ± 1220 µM,O=C1CN[C@H](Cc2ccc(OCc3ccccc3)cc2)C(=O)N1 [(R)‐8b],–
1310 ± 284 µM,CSCC[C@H]1NCC(=O)NC1=O [(R)‐13b],–
1720 ± 85 µM,CC(O)[C@H]1NCC(=O)NC1=O (stereo partly drawn) [(R)‐12b],–
4.6 ± 0.019 µM,O=C1CNCC(=O)N1 [Compound 1],"Toxicity on Vero kidney cell line (in words) [2]: did not exhibit toxicity; viability at 24 h, 12 mM [3]: 100%"
822 ± 1350 µM,CC(C)[C@H]1NCC(=O)NC1=O [(R)‐3b],–
17 µM,CC(C)[C@@H]1NCC(=O)NC1=O [(S)‐3a],–
12 µM,O=C1CN[C@@H](Cc2c[nH]c3ccccc23)C(=O)N1 [(S)‐14a],–
2150 ± 202 µM,O=C1CN[C@H](Cc2ccccc2)C(=O)N1 [(R)‐7b],–
978 ± 96 µM,CSCC[C@@H]1NCC(=O)NC1=O [(S)‐13a],–
155 ± 322 µM,O=C1CN[C@@H](Cc2ccccc2)C(=O)N1 [(S)‐7a],–
2100 ± 249 µM,CC(O)[C@@H]1NCC(=O)NC1=O (stereo partly drawn) [(S)‐12a],Decrease in apoptotic induction at 48 h compared to the 24 h test [4]: 3%
4.6 ± 0.169 µM,C[C@@H]1NCC(=O)NC1=O [(S)‐2a],"Toxicity on Vero kidney cell line (in words) [2]: did not exhibit toxicity; viability at 24 h, 12 mM [3]: 100%"

Compound,IC50 [1],also measured
O=C1CN2CCC[C@H]2C(=O)N1 [(S)‐6a],1020 ± 167 µM,–
O=C1CN2CCC[C@@H]2C(=O)N1 [(R)‐6b],584 ± 1010 µM,–
